From ChEMBL document CHEMBL1139242, “Peptide deformylase inhibitors of Mycobacterium tuberculosis: synthesis, structural investigations, and biological results” (Bioorg Med Chem Lett, 2008)
Values after ≈ are worked out from the molar mass of the structure shown.

Assays:
Type in all cases: functional
Conditions in all cases: 336 h
[1] = system: Mycobacterium tuberculosis; experiment: Antitubercular activity against rifampicin-resistant Mycobacterium tuberculosis after 14 days by turbidimetric assay
[2] = system: Mycobacterium tuberculosis; experiment: Antitubercular activity against pyrazinamide-resistant Mycobacterium tuberculosis after 14 days by turbidimetric assay
[3] = system: Mycobacterium tuberculosis; experiment: Antitubercular activity against Beijing W multidrug resistant Mycobacterium tuberculosis after 14 days by turbidimetric assay
[4] = system: Mycobacterium tuberculosis; experiment: Antitubercular activity against isoniazid-resistant Mycobacterium tuberculosis after 14 days by turbidimetric assay
[5] = system: Mycobacterium tuberculosis; experiment: Antitubercular activity against streptomycin-resistant Mycobacterium tuberculosis after 14 days by turbidimetric assay

SMILES | MIC [1] [µg/mL] | MIC [2] [µg/mL] | MIC [3] [µg/mL] | MIC [4] [µg/mL] | MIC [5] [µg/mL]
CCCC[C@H](CN(O)C=O)C(=O)N1CCC[C@H]1C(=O)Nc1ccccn1 | 0.25 (≈ 0.69 µM) | 0.5 (≈ 1.38 µM) | 0.125 (≈ 0.345 µM) | 0.1 (≈ 0.276 µM) | 0.5 (≈ 1.38 µM)
CCCC[C@H](CN(O)C=O)C(=O)N1CCC[C@H]1c1nc2ccccc2o1 | 0.6 (≈ 1.67 µM) | 0.25 (≈ 0.696 µM) | 0.06 (≈ 0.167 µM) | 0.06 (≈ 0.167 µM) | 0.5 (≈ 1.39 µM)
CCCC[C@H](CN(O)C=O)C(=O)N1CCC[C@H]1c1nc2ccccc2[nH]1 | 0.125 (≈ 0.349 µM) | 0.25 (≈ 0.697 µM) | 0.03 (≈ 0.0837 µM) | 0.03 (≈ 0.0837 µM) | 0.2 (≈ 0.558 µM)
